Data from ChEMBL document CHEMBL1833884, “Discovery of a brain-penetrant S1P₃-sparing direct agonist of the S1P₁ and S1P₅ receptors efficacious at low oral dose” (J Med Chem, 2011).
Calls of active or inactive are those of the source. The rule behind the calls is not given here.

Tests used:
[1] = target: T1, Sphingosine 1-phosphate receptor 1 (Homo sapiens, UniProt P21453); assay: Agonist activity at human S1P1 receptor expressed in CHO-K1 EDG1 cells expressing beta-arrestin 2 after 105 mins by chemi-luminescence assay; assay type: functional, cell-based
T1 sequence (P21453 whole entry): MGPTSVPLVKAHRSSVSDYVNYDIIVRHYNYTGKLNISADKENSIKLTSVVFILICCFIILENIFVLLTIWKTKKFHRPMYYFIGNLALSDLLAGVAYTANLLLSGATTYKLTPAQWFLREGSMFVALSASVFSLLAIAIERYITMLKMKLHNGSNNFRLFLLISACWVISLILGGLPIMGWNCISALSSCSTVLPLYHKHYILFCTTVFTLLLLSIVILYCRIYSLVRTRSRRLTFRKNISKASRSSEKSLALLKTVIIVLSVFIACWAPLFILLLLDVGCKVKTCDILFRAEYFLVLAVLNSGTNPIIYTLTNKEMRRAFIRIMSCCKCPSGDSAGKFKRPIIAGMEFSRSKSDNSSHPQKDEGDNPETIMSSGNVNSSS

[2] = target: T2, Sphingosine 1-phosphate receptor 3 (Homo sapiens, UniProt Q99500); assay: Agonist activity at human S1P3 receptor expressed in RBL cells assessed as [35S]GTPgammaS binding after 3 hrs by radiometric assay; assay type: functional, cell-based
T2 sequence (Q99500 whole entry): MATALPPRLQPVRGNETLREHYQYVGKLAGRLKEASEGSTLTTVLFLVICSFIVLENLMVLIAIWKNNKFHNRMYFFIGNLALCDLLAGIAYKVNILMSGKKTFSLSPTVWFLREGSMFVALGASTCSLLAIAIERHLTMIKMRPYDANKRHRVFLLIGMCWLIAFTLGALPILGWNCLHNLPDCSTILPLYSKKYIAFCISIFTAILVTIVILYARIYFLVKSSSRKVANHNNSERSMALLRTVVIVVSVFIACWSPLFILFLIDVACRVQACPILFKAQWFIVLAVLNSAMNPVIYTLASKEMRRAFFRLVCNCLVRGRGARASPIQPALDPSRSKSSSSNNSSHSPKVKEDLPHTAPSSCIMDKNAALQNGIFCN

[3] = Chromatographic hydrophobicity index, log D of the compound at pH 7.4; assay type: physicochemical; settings: buffer
[4] = Dissociation constant, pKa of the compound; assay type: physicochemical
[5] = Blood clearance in CD rat at 1 mg/kg, iv; assay type: ADME, organism-based; design: dose 1 mg/kg, route intravenous
[6] = Volume of distribution at steady state in CD rat at 1 mg/kg, iv; assay type: ADME, organism-based; design: dose 1 mg/kg, route intravenous; settings: in vivo, read-out: Vdss
[7] = Half life in CD rat at 1 mg/kg, iv; assay type: ADME, organism-based; design: dose 1 mg/kg, route intravenous; settings: in vivo
[8] = tested on: Rattus norvegicus; assay: Lymphopenic activity in Lewis rat assessed as reduction in blood lymphocyte counts at 1 mg/kg, po; assay type: functional; design: scale not given: the % may be the effect or the level left
[9] = target: T3, Sphingosine 1-phosphate receptor 4 (Homo sapiens) (UniProt O95977); assay: Agonist activity at human S1P4 expressed in CHO-K1 aequorin cells assessed as calcium accumulation of by luminescence assay in presence of cofactor coelenterazine relative to control; assay type: functional, cell-based
T3 sequence (whole entry): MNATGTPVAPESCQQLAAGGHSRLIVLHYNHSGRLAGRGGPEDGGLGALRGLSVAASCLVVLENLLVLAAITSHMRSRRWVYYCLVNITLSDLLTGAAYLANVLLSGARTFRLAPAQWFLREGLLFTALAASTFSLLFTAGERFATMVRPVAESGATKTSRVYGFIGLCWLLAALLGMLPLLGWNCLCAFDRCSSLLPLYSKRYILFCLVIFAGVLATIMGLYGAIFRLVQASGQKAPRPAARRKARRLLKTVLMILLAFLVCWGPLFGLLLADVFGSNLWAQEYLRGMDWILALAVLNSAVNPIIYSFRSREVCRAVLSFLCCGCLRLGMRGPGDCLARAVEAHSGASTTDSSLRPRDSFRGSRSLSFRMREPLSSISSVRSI

[10] = target: T4, Sphingosine 1-phosphate receptor 4 (Homo sapiens, UniProt O95977); assay: Agonist activity at human S1P4 expressed in CHO-K1 aequorin cells assessed as calcium accumulation of by luminescence assay in presence of cofactor coelenterazine; assay type: functional, cell-based
T4 sequence (O95977 whole entry): T3 sequence (whole entry)

[11] = target: T1, Sphingosine 1-phosphate receptor 1; assay: Agonist activity at human S1P1 receptor expressed in CHO-K1 EDG1 cells expressing beta-arrestin 2 after 105 mins by chemi-luminescence assay relative to control; assay type: functional, cell-based
[12] = target: T2, Sphingosine 1-phosphate receptor 3; assay: Agonist activity at human S1P3 receptor expressed in RBL cells assessed as [35S]GTPgammaS binding after 3 hrs by radiometric assay relative to control; assay type: functional, cell-based
[13] = target: T5, Sphingosine 1-phosphate receptor 5 (Homo sapiens, UniProt Q9H228); assay: Agonist activity at human S1P5 receptor expressed in CHO-K1 aequorin cells assessed as calcium accumulation of by luminescence assay in presence of cofactor coelenterazine relative to control; assay type: functional, cell-based
T5 sequence (Q9H228 whole entry): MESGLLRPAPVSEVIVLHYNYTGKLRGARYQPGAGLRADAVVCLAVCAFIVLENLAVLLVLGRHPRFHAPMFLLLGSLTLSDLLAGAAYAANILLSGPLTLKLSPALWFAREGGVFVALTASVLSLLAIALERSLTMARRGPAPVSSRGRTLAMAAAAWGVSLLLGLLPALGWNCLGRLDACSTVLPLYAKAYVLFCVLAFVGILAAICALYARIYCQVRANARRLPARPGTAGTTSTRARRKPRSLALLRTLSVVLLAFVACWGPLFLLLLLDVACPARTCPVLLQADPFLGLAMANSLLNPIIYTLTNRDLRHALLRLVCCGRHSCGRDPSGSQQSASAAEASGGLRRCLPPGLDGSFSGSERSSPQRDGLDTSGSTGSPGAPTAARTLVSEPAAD

[14] = Oral bioavailability in CD rat at 3 mg/kg; assay type: ADME, organism-based; settings: in vivo
[15] = target: Voltage-gated inwardly rectifying potassium channel KCNH2 (Homo sapiens, UniProt Q12809)
Sequence of Voltage-gated inwardly rectifying potassium channel KCNH2 (Q12809 whole entry): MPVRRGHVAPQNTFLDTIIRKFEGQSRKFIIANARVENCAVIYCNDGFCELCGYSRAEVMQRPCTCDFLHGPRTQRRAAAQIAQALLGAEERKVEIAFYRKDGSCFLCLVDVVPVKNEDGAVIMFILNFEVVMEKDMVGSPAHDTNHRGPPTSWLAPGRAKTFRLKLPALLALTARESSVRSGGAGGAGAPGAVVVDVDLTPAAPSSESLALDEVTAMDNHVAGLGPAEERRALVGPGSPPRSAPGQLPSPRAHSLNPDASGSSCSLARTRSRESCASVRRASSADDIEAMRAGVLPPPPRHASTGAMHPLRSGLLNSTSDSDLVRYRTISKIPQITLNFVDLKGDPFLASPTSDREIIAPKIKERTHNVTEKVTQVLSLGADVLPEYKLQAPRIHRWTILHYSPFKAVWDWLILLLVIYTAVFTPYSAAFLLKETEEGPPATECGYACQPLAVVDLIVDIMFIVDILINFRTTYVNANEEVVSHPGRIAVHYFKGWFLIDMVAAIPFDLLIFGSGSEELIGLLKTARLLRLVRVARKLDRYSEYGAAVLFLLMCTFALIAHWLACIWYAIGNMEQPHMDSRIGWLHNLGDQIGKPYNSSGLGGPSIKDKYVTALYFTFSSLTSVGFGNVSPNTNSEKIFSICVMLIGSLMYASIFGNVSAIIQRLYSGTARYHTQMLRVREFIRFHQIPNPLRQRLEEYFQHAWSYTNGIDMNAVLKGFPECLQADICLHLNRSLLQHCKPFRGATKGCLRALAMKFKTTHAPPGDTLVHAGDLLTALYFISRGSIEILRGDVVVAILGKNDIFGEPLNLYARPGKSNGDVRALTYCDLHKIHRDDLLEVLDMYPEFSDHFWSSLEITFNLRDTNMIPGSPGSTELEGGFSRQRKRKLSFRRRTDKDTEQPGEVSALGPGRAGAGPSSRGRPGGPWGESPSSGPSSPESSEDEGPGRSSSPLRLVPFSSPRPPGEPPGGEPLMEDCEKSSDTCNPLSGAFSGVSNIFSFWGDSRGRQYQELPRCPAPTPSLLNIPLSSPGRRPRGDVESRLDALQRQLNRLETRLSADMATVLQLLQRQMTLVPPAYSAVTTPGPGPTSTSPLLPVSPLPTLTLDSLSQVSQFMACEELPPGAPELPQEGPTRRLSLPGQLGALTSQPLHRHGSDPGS

[16] = target: T5, Sphingosine 1-phosphate receptor 5; assay: Agonist activity at human S1P5 receptor expressed in CHO-K1 aequorin cells assessed as calcium accumulation of by luminescence assay in presence of cofactor coelenterazine; assay type: functional, cell-based
[17] = Chromatographic hydrophobicity index, log D of the compound at pH 2.0; assay type: physicochemical; settings: buffer
[18] = Chromatographic hydrophobicity index, log D of the compound at pH 10.5; assay type: physicochemical; settings: buffer
[19] = target: hERG (KCNH2) (Homo sapiens, UniProt Q12809); assay: Inhibition of human ERG at 30 uM
Sequence of hERG (KCNH2) (Q12809 whole entry): as above

[20] = Oral bioavailability in CD rat at 1 mg/kg; assay type: ADME, organism-based; settings: in vivo
[21] = tested on: Rattus norvegicus; assay: Lymphopenic activity in Lewis rat assessed as reduction in blood lymphocyte counts at 0.3 mg/kg, po; assay type: functional, organism-based; design: dose 0.3 mg/kg
[22] = Solubility of the compound in fed state simulated intestinal fluid; assay type: physicochemical; settings: simulated gi fluid
[23] = tested on: Hepatocyte; assay: Intrinsic clearance in rat hepatocytes; assay type: ADME, cell-based, Liver
[24] = Intrinsic clearance in dog hepatocytes; assay type: ADME, cell-based, Canis lupus familiaris, Liver, Hepatocyte
[25] = tested on: Hepatocyte; assay: Intrinsic clearance in mouse hepatocytes; assay type: ADME, cell-based, Liver
[26] = Intrinsic clearance in cynomolgus monkey hepatocytes; assay type: ADME, cell-based, Macaca fascicularis, Liver, Hepatocyte
[27] = tested on: Hepatocyte; assay: Intrinsic clearance in human hepatocytes; assay type: ADME, cell-based, Liver
[28] = target: T6, Cytochrome P450 3A4 (Homo sapiens, UniProt P08684); assay: Inhibition of CYP3A4 using vivid green as substrate; assay type: ADME
T6 sequence (P08684 whole entry): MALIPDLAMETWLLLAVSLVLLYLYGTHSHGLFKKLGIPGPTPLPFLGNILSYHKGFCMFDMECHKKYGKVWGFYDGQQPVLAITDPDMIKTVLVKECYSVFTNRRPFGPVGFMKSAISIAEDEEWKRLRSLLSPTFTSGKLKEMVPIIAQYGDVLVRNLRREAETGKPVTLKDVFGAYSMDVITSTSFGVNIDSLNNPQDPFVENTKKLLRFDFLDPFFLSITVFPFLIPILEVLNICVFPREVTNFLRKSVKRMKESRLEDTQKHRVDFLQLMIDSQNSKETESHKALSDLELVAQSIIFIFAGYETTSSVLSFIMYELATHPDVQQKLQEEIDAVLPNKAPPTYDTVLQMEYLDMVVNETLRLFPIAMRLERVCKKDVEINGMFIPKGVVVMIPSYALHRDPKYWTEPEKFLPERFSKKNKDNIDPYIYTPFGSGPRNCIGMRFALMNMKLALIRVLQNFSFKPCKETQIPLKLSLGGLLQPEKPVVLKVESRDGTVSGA

[29] = Ratio of drug level in brain to blood in CD rat at 0.8 mg/kg/hr, iv measured up to 7 hrs; assay type: ADME, organism-based; design: route intravenous
[30] = Blood clearance in Beagle dog at 1 mg/kg, iv; assay type: ADME, organism-based, Canis lupus familiaris; design: dose 1 mg/kg, route intravenous
[31] = Volume of distribution at steady state in Beagle dog at 1 mg/kg, iv; assay type: ADME, organism-based, Canis lupus familiaris; design: dose 1 mg/kg, route intravenous; settings: in vivo, read-out: Vdss
[32] = Half life in Beagle dog at 1 mg/kg, iv; assay type: ADME, organism-based, Canis lupus familiaris; design: dose 1 mg/kg, route intravenous; settings: in vivo
[33] = Oral bioavailability in Beagle dog at 1 mg/kg; assay type: ADME, organism-based, Canis lupus familiaris; settings: in vivo
[34] = target: Cytochrome P450 2C9 (Homo sapiens, UniProt P11712); assay: Inhibition of CYP2C9; assay type: ADME
Sequence of Cytochrome P450 2C9 (P11712 whole entry): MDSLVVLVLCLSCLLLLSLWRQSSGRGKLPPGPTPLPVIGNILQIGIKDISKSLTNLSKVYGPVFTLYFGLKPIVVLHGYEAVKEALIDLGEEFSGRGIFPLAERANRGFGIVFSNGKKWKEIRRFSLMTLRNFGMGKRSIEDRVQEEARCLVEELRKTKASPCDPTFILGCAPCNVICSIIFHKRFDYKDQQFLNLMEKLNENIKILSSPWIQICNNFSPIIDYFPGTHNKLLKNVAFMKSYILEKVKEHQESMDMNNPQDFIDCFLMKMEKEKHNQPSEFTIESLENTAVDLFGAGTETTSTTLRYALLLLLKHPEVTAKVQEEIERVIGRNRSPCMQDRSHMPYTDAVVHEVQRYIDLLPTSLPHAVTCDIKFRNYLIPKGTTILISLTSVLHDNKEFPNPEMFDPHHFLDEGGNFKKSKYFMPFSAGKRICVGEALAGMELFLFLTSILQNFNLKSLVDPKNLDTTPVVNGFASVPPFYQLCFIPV

[35] = target: Cytochrome P450 2C19 (Homo sapiens, UniProt P33261); assay: Inhibition of CYP2C19; assay type: ADME
[36] = target: Cytochrome P450 2D6 (Homo sapiens, UniProt P10635); assay: Inhibition of CYP2D6; assay type: ADME
[37] = target: T6, Cytochrome P450 3A4; assay: Inhibition of CYP3A4 using vivid red as substrate; assay type: ADME
[38] = tested on: Plasma; assay: Fraction unbound in CD rat plasma; assay type: ADME, cell-free
[39] = Plasma protein binding in CD rat at 1 mg/kg, iv; assay type: ADME, organism-based; design: dose 1 mg/kg, route intravenous; settings: read-out: PPB
[40] = tested on: Rattus norvegicus; assay: Metabolic stability of the compound in Lewis rat at 1 mg/kg, po; assay type: ADME, organism-based; design: dose 1 mg/kg, route oral; settings: in vivo
[41] = tested on: MDR1 (P-glycoprotein), human; assay: Efflux ratio of permeability in dog MDCK2 cells expressing human MDR1; assay type: ADME, cell-based, Canis lupus familiaris, MDCK-II; settings: MDCK-MDR1
[42] = target: T7, Sphingosine 1-phosphate receptor 2 (Homo sapiens, UniProt O95136); assay: Agonist activity at human S1P2 receptor expressed in yeast MMY24 assessed as conversion of FDGlu to fluorescein after 24 hrs; assay type: functional
T7 sequence (O95136 whole entry): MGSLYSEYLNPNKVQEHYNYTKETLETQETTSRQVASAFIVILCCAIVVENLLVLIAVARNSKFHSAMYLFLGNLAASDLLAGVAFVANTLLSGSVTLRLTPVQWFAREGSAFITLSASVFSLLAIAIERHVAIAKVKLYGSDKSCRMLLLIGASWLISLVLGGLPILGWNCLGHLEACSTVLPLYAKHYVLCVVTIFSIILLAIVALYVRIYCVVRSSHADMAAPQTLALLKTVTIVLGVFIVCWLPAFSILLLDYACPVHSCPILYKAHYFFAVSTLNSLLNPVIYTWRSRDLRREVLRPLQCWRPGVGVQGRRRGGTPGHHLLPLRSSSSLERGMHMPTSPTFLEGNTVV

[43] = target: T7, Sphingosine 1-phosphate receptor 2; assay: Agonist activity at human S1P2 receptor expressed in yeast MMY24 assessed as conversion of FDGlu to fluorescein after 24 hrs relative to control; assay type: functional
[44] = Bioavailability in CD rat at 1 mg/kg, […]; assay type: ADME, organism-based; settings: in vivo

CC(C)Oc1ccc(-c2nc(-c3cccc4c3OCCN(C(CO)CO)C4)no2)cc1C#N
EC50 [1]: 0.02 µM | EC50 [2]: > 31.6 µM | chromatographic logD [3]: 2.41 | pKa [4]: 6.03 | clearance [5]: 14 mL/min/kg | Vd [6]: 3.3 L/kg | half-life [7]: 3.5 h | Activity [8]: 60%

CCCCCCCCc1ccc(CC[C@](N)(CO)COP(=O)(O)O)cc1 [FTY720-P]
Emax [9]: 48% | EC50 [10]: 0.2 µM | Emax [11]: 99% | Emax [12]: 62% | Emax [13]: 7.2%

Cc1c(-c2noc(-c3ccc(OC(C)C)c(C#N)c3)n2)cnc2c1CCN(C(CO)CO)C2
EC50 [1]: 0.02 µM | EC50 [2]: > 100 µM | chromatographic logD [3]: 2 | pKa [4]: 6.22 | clearance [5]: 21 mL/min/kg | Vd [6]: 3.3 L/kg | half-life [7]: 2.1 h | bioavailability [14]: 37% | Activity [8]: 70% | IC50 [15]: 12.6 µM

Cc1c(-c2noc(-c3ccc(OC(C)C)c(C#N)c3)n2)ccc2c1CCN(C(CO)CO)C2
EC50 [1]: 0.00316 µM | EC50 [2]: > 31.6 µM | EC50 [16]: 0.02 µM | chromatographic logD [17]: 0.98 | chromatographic logD [3]: 2.64 | chromatographic logD [18]: 2.99 | pKa [4]: 7.3 | inhibition at 30 µM [19]: 58% | clearance [5]: 60 mL/min/kg | Vd [6]: 4.1 L/kg | half-life [7]: 1 h | bioavailability [14]: 52% | bioavailability [20]: 52% | Activity [8]: 96% | Activity [21]: Active | solubility [22]: > 1 µg/mL | CL [23]: 3 mL/min/g | CL [24]: 30 mL/min/g | CL [25]: 1.3 mL/min/g | CL [26]: 1.3 mL/min/g | CL [27]: 2 mL/min/g | IC50 [28]: 8.4 µM | Kp at 7 h [29]: 1.87 | clearance [30]: 29 mL/min/kg | Vd [31]: 7 L/kg | half-life [32]: 3 h | bioavailability [33]: 45% | IC50 [34]: 4.3 µM | IC50 [35]: > 50 µM | IC50 [36]: > 50 µM | IC50 [37]: 15.3 µM | IC50 [15]: 12.9 µM

CC(C)Oc1ncc(-c2nc(-c3ccc4c(c3)CCNCC4)no2)cc1C#N
EC50 [1]: 0.02 µM | EC50 [2]: > 31.6 µM | chromatographic logD [17]: 1.34 | chromatographic logD [3]: 2.65 | chromatographic logD [18]: 3.73 | pKa [4]: 9.69 | Fu [38]: 0.25% | clearance [5]: 20 mL/min/kg | Vd [6]: 9.7 L/kg | half-life [7]: 6.3 h | bioavailability [14]: 70% | fraction unbound [39]: < 0.05 | IC50 [15]: 3.16 µM

CC(C)Oc1ccc(-c2nc(-c3ccc4c(c3)CCN(C(CO)CO)C4)no2)cc1C#N
EC50 [1]: 0.00794 µM | EC50 [2]: 6.31 µM | chromatographic logD [3]: 2.49 | pKa [4]: 7.28 | clearance [5]: 87 mL/min/kg | Vd [6]: 3.7 L/kg | half-life [7]: 0.6 h | Activity [8]: 49% | IC50 [15]: 20 µM

Cc1c(-c2noc(-c3ccc(OC(C)C)c(C#N)c3)n2)ccc2c1CCN(CC(=O)N[C@@H](C)CO)C2
EC50 [1]: 0.00126 µM | EC50 [2]: 25.1 µM | chromatographic logD [3]: 3.04 | pKa [4]: 6.07 | inhibition at 30 µM [19]: 43% | clearance [5]: 32 mL/min/kg | Vd [6]: 4.4 L/kg | half-life [7]: 2 h | bioavailability [14]: 38% | Activity [8]: 90% | Stability [40]: Unstable | IC50 [15]: > 10 µM

Cc1c(-c2noc(-c3ccc(OC(C)C)c(C#N)c3)n2)ccc2c1CCN(CCC(=O)O)C2
efflux ratio [41]: 6 | EC50 [1]: 0.00562 µM | EC50 [42]: > 33.1 µM | EC50 [2]: > 31.6 µM | Emax [9]: 3% | EC50 [16]: 0.162 µM | EC50 [10]: > 41.7 µM | Emax [11]: 94% | Emax [43]: 1% | Emax [12]: 35% | Emax [13]: 77%

CC(C)Oc1ccc(-c2nc(-c3ccc4c(c3)CCN(C(CO)CO)CC4)no2)cc1C#N
EC50 [1]: 0.02 µM | EC50 [2]: 15.8 µM | chromatographic logD [3]: 2.74 | pKa [4]: 7.81 | inhibition at 30 µM [19]: 59% | clearance [5]: 21 mL/min/kg | Vd [6]: 7.6 L/kg | half-life [7]: 5.3 h | Activity [8]: 88% | bioavailability [44]: 68% | IC50 [15]: 17.8 µM
